Reference: US10544132B2, “Isoindolinone inhibitors of the MDM2-p53 interaction having anticancer activity” (ASTEX THERAPEUTICS LIMITED, priority 2015, dated 2020)

Key:
SN40R2 cells = experiment: SN40R2 growth inhibition, sulphorhodamine B (SRB) method (Protocol A); conditions: 72 h, read-out: SN40R2 IC50 (μM) (Protocol A)
MDM2-p53 interaction = MDM2-p53 interaction (Homo sapiens (Human), UniProt Q00987); experiment: MDM2-p53 interaction 96-well plate binding assay (ELISA)
SJSA-1 cells = experiment: SJSA-1 growth inhibition, sulphorhodamine B (SRB) method (Protocol A); conditions: Homo sapiens, SJSA-1, 72 h, read-out: SJSA-1 IC50 (μM) (Protocol A)

Chain of MDM2-p53 interaction (Q00987 whole entry): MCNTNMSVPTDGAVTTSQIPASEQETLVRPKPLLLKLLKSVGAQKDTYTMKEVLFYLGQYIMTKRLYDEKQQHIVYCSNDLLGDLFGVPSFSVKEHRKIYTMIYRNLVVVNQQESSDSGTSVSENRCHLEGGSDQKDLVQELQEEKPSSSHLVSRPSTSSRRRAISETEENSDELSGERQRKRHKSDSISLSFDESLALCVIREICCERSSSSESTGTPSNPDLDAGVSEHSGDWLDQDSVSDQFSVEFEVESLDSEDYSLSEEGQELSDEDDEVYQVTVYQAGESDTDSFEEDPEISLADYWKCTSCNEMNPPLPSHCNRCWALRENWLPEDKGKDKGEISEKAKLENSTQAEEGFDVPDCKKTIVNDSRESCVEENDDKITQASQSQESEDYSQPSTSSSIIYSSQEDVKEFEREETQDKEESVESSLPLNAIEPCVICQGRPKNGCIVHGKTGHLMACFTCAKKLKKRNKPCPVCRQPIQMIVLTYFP

SMILES	IC50 (SN40R2 cells) [µM]	IC50 (MDM2-p53 interaction) [µM]	IC50 (SJSA-1 cells) [µM]
CC(C)(O)c1cc(F)c2c(c1)C(=O)N(Cc1ccc(Cl)cc1)[C@@]2(OCC1(CO)CC1)c1ccc(Cl)cc1 [Example 2, (3R)-3-(4-chlorophenyl)-2-[(4-chlorophenyl)methyl]-4-fluoro-3-{[1-(hydroxymethyl)cyclopropyl]methoxy}-6-(2-hydroxypropan-2-yl)-2,3-dihydro-1H-isoindol-1-one]	17		
[2H]C([2H])(O)C1(C([2H])([2H])O[C@]2(c3ccc(Cl)cc3)c3ccc(C(C)(C)O)cc3C(=O)N2Cc2ccc(Cl)cc2S(C)(=O)=O)CC1 [Example 36, (3R)-2-[(4-chloro-2-methanesulfonylphenyl)methyl]-3-(4-chlorophenyl)-3-({1-[hydroxy(^2H2)methyl]cyclopropyl}(^2H2)methoxy)-6-(2-hydroxypropan-2-yl)-2,3-dihydro-1H-isoindol-1-one]	17	0.0019	0.078
